Earlier results in patent US5374661A (Sano Corporation, priority 1993, dated 1994).

Legend:
[1] = oral

O=C(O)Cc1ccccc1Nc1c(Cl)cccc1Cl [Diclofenac]
inhibition of lipoxygenase pathway (in words) (lipoxygenase pathway): may inhibit the lipoxygenase pathway with subsequent reduction in leukotriene production | less frequent side effects [1]: abdominal distension, flatulence and peptic ulcers with bleeding | most common gastrointestinal side effects [1]: nausea, vomiting, abdominal pain, dyspepsia and diarrhea | inhibition of cyclooxygenase pathway (in words) (cyclooxygenase): inhibits the cyclooxygenase pathway with subsequent reduction in prostaglandin and thromboxane production
